What was measured:
CAKI-1 = experiment: Antiproliferative activity against human CAKI-1 cells after 3 days by fluorescence assay; type: functional; conditions: CAKI-1, 72 h
[1] = Antiproliferative activity against human RXF393 cells after 3 days by fluorescence assay; type: functional; conditions: RXF 393, 72 h
SN12C = experiment: Antiproliferative activity against human SN12C cells after 3 days by fluorescence assay; type: functional; conditions: 72 h
TK-10 = experiment: Antiproliferative activity against human TK10 cells after 3 days by fluorescence assay; type: functional; conditions: TK-10, 72 h
[2] = Antiproliferative activity against human UO31 cells after 3 days by fluorescence assay; type: functional; conditions: UO-31, 72 h
[3] = Antiproliferative activity against human PC3 cells after 3 days by fluorescence assay; type: functional; conditions: PC-3, 72 h
DU-145 [4] = experiment: (§1) Antiproliferative activity against human DU145 cells after 3 days by fluorescence assay; type: functional; conditions: DU-145, 72 h
MCF7 = experiment: Antiproliferative activity against human MCF7 cells after 3 days by fluorescence assay; type: functional; conditions: MCF7, 72 h
MDA-MB-231 = experiment: Antiproliferative activity against human MDA-MB-231 cells after 3 days by fluorescence assay; type: functional; conditions: MDA-MB-231, 72 h
[5] = Antiproliferative activity against human Hs 578T cells after 3 days by fluorescence assay; type: functional; conditions: 72 h
[6] = Antiproliferative activity against human BT549 cells after 3 days by fluorescence assay; type: functional; conditions: BT-549, 72 h
T47D = experiment: Antiproliferative activity against human T47D cells after 3 days by fluorescence assay; type: functional; conditions: 72 h
MDA-MB-468 = experiment: Antiproliferative activity against human MDA-MB-468 cells after 3 days by fluorescence assay; type: functional; conditions: MDA-MB-468, 72 h
Tubulin = experiment: Displacement of [3H]-colchicine from tubulin (unknown origin) after 10 mins by turbidimetrically; type: protein-complex assay, Homo sapiens
Tubulin (Homo sapiens) [7] = molecular target: T1, Tubulin (Homo sapiens) (UniProt P68371+Q9H4B7+P0DPH7+P68366+Q13509+Q71U36+P04350+Q3ZCM7+P07437+P68363+Q9BQE3+Q6PEY2+Q13885+Q9BVA1+Q9BUF5); experiment: Displacement of [3H]-colchicine from tubulin (unknown origin) at 1 uM after 10 mins by turbidimetrically relative to control; type: protein-complex assay
Tubulin (Homo sapiens) [8] = molecular target: T1, Tubulin (Homo sapiens); experiment: Displacement of [3H]-colchicine from tubulin (unknown origin) at 5 uM after 10 mins by turbidimetrically relative to control; type: protein-complex assay
Tubulin (Homo sapiens) [9] = molecular target: T1, Tubulin (Homo sapiens); experiment: Displacement of [3H]-colchicine from tubulin (unknown origin) at 50 uM after 10 mins by turbidimetrically relative to control; type: protein-complex assay
DU-145 [10] = experiment: as §1; type: functional; conditions: DU-145, 72 h; remark: listed apart in the source
CCRF-CEM = experiment: Antiproliferative activity against human CCRF-CEM cells after 3 days by fluorescence assay; type: functional; conditions: 72 h
HL-60(TB) = experiment: Antiproliferative activity against human HL-60(TB) cells after 3 days by fluorescence assay; type: functional; conditions: HL-60, 72 h
K562 = experiment: Antiproliferative activity against human K562 cells after 3 days by fluorescence assay; type: functional; conditions: K562, 72 h
[11] = Antiproliferative activity against human MOLT4 cells after 3 days by fluorescence assay; type: functional; conditions: MOLT-4, 72 h
[12] = Antiproliferative activity against human RPMI8226 cells after 3 days by fluorescence assay; type: functional; conditions: RPMI-8226, 72 h
SR = experiment: Antiproliferative activity against human SR cells after 3 days by fluorescence assay; type: functional; conditions: 72 h
A549 = experiment: Antiproliferative activity against human A549 cells after 3 days by fluorescence assay; type: functional; conditions: A549, 72 h
[13] = Antiproliferative activity against human EKVX cells after 3 days by fluorescence assay; type: functional; conditions: 72 h
HOP-62 = experiment: Antiproliferative activity against human HOP62 cells after 3 days by fluorescence assay; type: functional; conditions: HOP-62, 72 h
[14] = Antiproliferative activity against human HOP92 cells after 3 days by fluorescence assay; type: functional; conditions: HOP-92, 72 h
NCI-H226 = experiment: Antiproliferative activity against human NCI-H226 cells after 3 days by fluorescence assay; type: functional; conditions: NCI-H226, 72 h
NCI-H23 = experiment: Antiproliferative activity against human NCI-H23 cells after 3 days by fluorescence assay; type: functional; conditions: NCI-H23, 72 h
NCI-H322M = experiment: Antiproliferative activity against human NCI-H322M cells after 3 days by fluorescence assay; type: functional; conditions: 72 h
NCI-H460 = experiment: Antiproliferative activity against human NCI-H460 cells after 3 days by fluorescence assay; type: functional; conditions: NCI-H460, 72 h
NCI-H522 = experiment: Antiproliferative activity against human NCI-H522 cells after 3 days by fluorescence assay; type: functional; conditions: NCI-H522, 72 h
[15] = Antiproliferative activity against human COLO205 cells after 3 days by fluorescence assay; type: functional; conditions: COLO 205, 72 h
[16] = Antiproliferative activity against human HCC2998 cells after 3 days by fluorescence assay; type: functional; conditions: HCC 2998, 72 h
[17] = Antiproliferative activity against human HCT116 cells after 3 days by fluorescence assay; type: functional; conditions: HCT-116, 72 h
[18] = Antiproliferative activity against human HCT15 cells after 3 days by fluorescence assay; type: functional; conditions: HCT-15, 72 h
HT-29 = experiment: Antiproliferative activity against human HT-29 cells after 3 days by fluorescence assay; type: functional; conditions: HT-29, 72 h
KM12 = experiment: Antiproliferative activity against human KM12 cells after 3 days by fluorescence assay; type: functional; conditions: KM12, 72 h
SW-620 = experiment: Antiproliferative activity against human SW620 cells after 3 days by fluorescence assay; type: functional; conditions: SW-620, 72 h
SF-268 = experiment: Antiproliferative activity against human SF268 cells after 3 days by fluorescence assay; type: functional; conditions: SF-268, 72 h
[19] = Antiproliferative activity against human SF295 cells after 3 days by fluorescence assay; type: functional; conditions: SF-295, 72 h
[20] = Antiproliferative activity against human SF539 cells after 3 days by fluorescence assay; type: functional; conditions: SF-539, 72 h
SNB-19 = experiment: Antiproliferative activity against human SNB19 cells after 3 days by fluorescence assay; type: functional; conditions: SNB-19, 72 h
SNB-75 = experiment: Antiproliferative activity against human SNB75 cells after 3 days by fluorescence assay; type: functional; conditions: SNB-75, 72 h
U-251 = experiment: Antiproliferative activity against human U251 cells after 3 days by fluorescence assay; type: functional; conditions: U-251, 72 h
[21] = Antiproliferative activity against human LOXIMVI cells after 3 days by fluorescence assay; type: functional; conditions: LOX IMVI, 72 h
Malme-3M = experiment: Antiproliferative activity against human MALME-3M cells after 3 days by fluorescence assay; type: functional; conditions: 72 h
M14 = experiment: Antiproliferative activity against human M14 cells after 3 days by fluorescence assay; type: functional; conditions: M14, 72 h
MDA-MB-435 = experiment: Antiproliferative activity against human MDA-MB-435 cells after 3 days by fluorescence assay; type: functional; conditions: MDA-MB-435, 72 h
SK-MEL-2 = experiment: Antiproliferative activity against human SK-MEL-2 cells after 3 days by fluorescence assay; type: functional; conditions: SK-MEL-2, 72 h
SK-MEL-28 = experiment: Antiproliferative activity against human SK-MEL-28 cells after 3 days by fluorescence assay; type: functional; conditions: SK-MEL-28, 72 h
SK-MEL-5 = experiment: Antiproliferative activity against human SK-MEL-5 cells after 3 days by fluorescence assay; type: functional; conditions: SK-MEL-5, 72 h
[22] = Antiproliferative activity against human UACC257 cells after 3 days by fluorescence assay; type: functional; conditions: UACC-257, 72 h
[23] = Antiproliferative activity against human UACC62 cells after 3 days by fluorescence assay; type: functional; conditions: UACC-62, 72 h
IGROV-1 = experiment: Antiproliferative activity against human IGROV1 cells after 3 days by fluorescence assay; type: functional; conditions: IGROV-1, 72 h
[24] = Antiproliferative activity against human OVCAR3 cells after 3 days by fluorescence assay; type: functional; conditions: OVCAR-3, 72 h
[25] = Antiproliferative activity against human OVCAR4 cells after 3 days by fluorescence assay; type: functional; conditions: OVCAR-4, 72 h
[26] = Antiproliferative activity against human OVCAR5 cells after 3 days by fluorescence assay; type: functional; conditions: OVCAR-5, 72 h
[27] = Antiproliferative activity against human OVCAR8 cells after 3 days by fluorescence assay; type: functional; conditions: OVCAR-8, 72 h
[28] = Antiproliferative activity against human NCI-ADR-RES cells after 3 days by fluorescence assay; type: functional; conditions: 72 h
[29] = Antiproliferative activity against human SKOV3 cells after 3 days by fluorescence assay; type: functional; conditions: SK-OV-3, 72 h
786-0 = experiment: Antiproliferative activity against human 786-0 cells after 3 days by fluorescence assay; type: functional; conditions: 786-0, 72 h
A498 = experiment: Antiproliferative activity against human A498 cells after 3 days by fluorescence assay; type: functional; conditions: A498, 72 h
ACHN = experiment: Antiproliferative activity against human ACHN cells after 3 days by fluorescence assay; type: functional; conditions: 72 h

Question: Which GI50 (CAKI-1) does the source give for `COc1cccc(NC(=O)N2CCC(c3nc(-c4ccc(C)cc4)no3)CC2)c1` here?
Answer: 5.75 µM

Question: What about the GI50 [1] of the same compound?
Answer: 4.07 µM

Question: What about the GI50 (SN12C) of the same compound?
Answer: 11 µM

Question: What about the GI50 (TK-10) of the same compound?
Answer: 9.55 µM

Question: What about the GI50 [2] of the same compound?
Answer: 6.46 µM

Question: What about the GI50 [3] of the same compound?
Answer: 4.37 µM

Question: What about the GI50 (DU-145 [4]) of the same compound?
Answer: 3.63 µM

Question: What about the GI50 (MCF7) of the same compound?
Answer: 3.24 µM

Question: And the GI50 (MDA-MB-231)?
Answer: 18.2 µM

Question: What about the GI50 [5] of the same compound?
Answer: 5.5 µM

Question: And the GI50 [6]?
Answer: 13.8 µM

Question: What about the GI50 (T47D) of the same compound?
Answer: 5.5 µM

Question: What about the GI50 (MDA-MB-468) of the same compound?
Answer: 2.45 µM

Question: What about the IC50 (Tubulin) of the same compound?
Answer: 3 µM

Question: And the inhibition (Tubulin (Homo sapiens) [7])?
Answer: 5.7%

Question: What about the inhibition (Tubulin (Homo sapiens) [8]) of the same compound?
Answer: 8.2%

Question: What about the inhibition (Tubulin (Homo sapiens) [9]) of the same compound?
Answer: 19%

Question: And the GI50 (DU-145 [10])?
Answer: 4.5 µM

Question: And the GI50 (CCRF-CEM)?
Answer: 3.55 µM

Question: What about the GI50 (HL-60(TB)) of the same compound?
Answer: 0.603 µM

Question: What about the GI50 (K562) of the same compound?
Answer: 0.355 µM

Question: And the GI50 [11]?
Answer: 5.5 µM

Question: What about the GI50 [12] of the same compound?
Answer: 3.31 µM

Question: What about the GI50 (SR) of the same compound?
Answer: 0.417 µM

Question: What about the GI50 (A549) of the same compound?
Answer: 5.13 µM

Question: And the GI50 [13]?
Answer: 6.76 µM

Question: What about the GI50 (HOP-62) of the same compound?
Answer: 4.68 µM

Question: What about the GI50 [14] of the same compound?
Answer: 3.31 µM

Question: What about the GI50 (NCI-H226) of the same compound?
Answer: 9.12 µM

Question: What about the GI50 (NCI-H23) of the same compound?
Answer: 6.03 µM

Question: And the GI50 (NCI-H322M)?
Answer: 11.7 µM

Question: What about the GI50 (NCI-H460) of the same compound?
Answer: 3.47 µM

Question: And the GI50 (NCI-H522)?
Answer: 4.07 µM

Question: What about the GI50 [15] of the same compound?
Answer: 3.8 µM

Question: And the GI50 [16]?
Answer: 5.01 µM

Question: What about the GI50 [17] of the same compound?
Answer: 4.79 µM

Question: And the GI50 [18]?
Answer: 4.9 µM

Question: What about the GI50 (HT-29) of the same compound?
Answer: 3.31 µM

Question: What about the GI50 (KM12) of the same compound?
Answer: 3.31 µM

Question: And the GI50 (SW-620)?
Answer: 3.98 µM

Question: And the GI50 (SF-268)?
Answer: 7.24 µM

Question: What about the GI50 [19] of the same compound?
Answer: 3.09 µM

Question: And the GI50 [20]?
Answer: 3.47 µM

Question: And the GI50 (SNB-19)?
Answer: 8.71 µM

Question: What about the GI50 (SNB-75) of the same compound?
Answer: 7.94 µM

Question: What about the GI50 (U-251) of the same compound?
Answer: 4.17 µM

Question: What about the GI50 [21] of the same compound?
Answer: 5.5 µM

Question: And the GI50 (Malme-3M)?
Answer: 4.17 µM

Question: What about the GI50 (M14) of the same compound?
Answer: 3.24 µM

Question: And the GI50 (MDA-MB-435)?
Answer: 0.537 µM

Question: And the GI50 (SK-MEL-2)?
Answer: 11 µM

Question: And the GI50 (SK-MEL-28)?
Answer: 13.2 µM

Question: What about the GI50 (SK-MEL-5) of the same compound?
Answer: 3.39 µM

Question: What about the GI50 [22] of the same compound?
Answer: 16.6 µM

Question: And the GI50 [23]?
Answer: 6.61 µM

Question: And the GI50 (IGROV-1)?
Answer: 9.12 µM

Question: And the GI50 [24]?
Answer: 2.63 µM

Question: What about the GI50 [25] of the same compound?
Answer: 7.24 µM

Question: And the GI50 [26]?
Answer: 13.2 µM

Question: What about the GI50 [27] of the same compound?
Answer: 7.08 µM

Question: And the GI50 [28]?
Answer: 2.75 µM

Question: And the GI50 [29]?
Answer: 4.47 µM

Question: And the GI50 (786-0)?
Answer: 6.03 µM

Question: And the GI50 (A498)?
Answer: 5.01 µM

Question: What about the GI50 (ACHN) of the same compound?
Answer: 5.89 µM
